The test system of test [1] is SW480 colon carcinoma cells. Kind of test: Cell viability assay (CellTiter-Glo). The settings on record: Homo sapiens, 96 h; SW480 cells, CellTiter-Glo, four days incubation. The test is classed as cell-based, human. In general terms: Cellular ATP, detected with luciferase, serves as a proxy for viable cell number.
The target in test [2] is recombinant DYRK1A kinase (Homo sapiens (Human), UniProt Q13627). Kind of test: DYRK1A kinase assay (Ser/Thr 18 peptide Z-lyte FRET).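 Further: Read-out is the coumarin to fluorescein emission ratio, referenced to unphosphorylated (0%) and phosphorylated (100%) Ser/Thr 18 peptide controls, values from dose-response curves by non-linear regression.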 The test is classed as biochemical. The settings on record: 30 μM ATP, 1 h room temperature.
Test [3] relates to α-smooth muscle actin (αSMA) positive LL29 cells. Kind of test: Inhibition of fibrotic process: αSMA in TGF-β1 treated primary human fibroblasts from IPF patients.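 On all read-outs here: controls were TGF-β1 stimulated wells with DMSO vehicle (positive) and cells given DMSO alone (negative), cultured in F12 medium with 1% fetal bovine serum.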 Format: cell-based. The settings on record: Homo sapiens, Fibroblast; for EC50: 96 h, Table 8, LL29 fibroblasts from IPF patients, TGF-β1 20 ng/mL, 4 days, dose-response 10 μM to 0.94 nM; for inhibition at 10 µM: read-out: percent value in parentheses beside EC50 >10 μM.

The subject of test [4] is IL-6. Kind of test: IL-6 inhibition in LPS-stimulated human peripheral blood mononuclear cells (HTRF).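 On all read-outs here: IL-6 detected by HTRF with an XL665- and Cryptate-labelled anti-IL-6 antibody pair, samples run in duplicate, EC50 obtained from a four-parameter Levenberg-Marquardt curve fit.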 Format: cell-based. The settings on record: Homo sapiens, PBMC; for EC50: Table 9, huPBMCs, LPS 50 ng/mL, 22 hours, dose-response starting from 10 μM; for inhibition at 10 µM: read-out: percent value in parentheses beside EC50 >10 μM. Background: TR-FRET usually uses a lanthanide donor and a delayed reading to cut background.
Experimental: After 22 hour incubation, a mixture of anti-IL6 XL665 and anti-IL-6 Cryptate diluted in reconstitution buffer (Catalog #62IL6PEC, Cisbio Inc., Bedford, Mass.) was added to each well. […] All samples were processed in duplicate. […] EC50 was determined using software generated by Dotmatics Limited (Windhill Bishops Stortford Herts, UK) using the Levenberg-Marquardt 4 parameter fitting procedure with finite different gradients.

Test [5] deals with Wnt pathway (Sp5-Luc reporter, TCF/LEF binding sites) in SW480 colon carcinoma cells. Kind of test: Screening assay for Wnt activity: Sp5-Luc reporter gene assay.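 On all read-outs here: firefly luciferase luminescence read in stably transduced SW480 cells carrying the Sp5 promoter reporter with eight TCF/LEF sites, compounds given in 0.1% DMSO final.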 The test is classed as cell-based, human. The settings on record: Homo sapiens; for EC50: Sp5-Luc reporter, SW480 cells, 36 to 48 hours. (In a reporter assay the amount or activity of a reporter protein is the signal.)
Experimental: The screening assay for Wnt activity is described as follows.
Following incubation, 15 μl of BriteLite Plus luminescence reagent (Perkin Elmer) was added to each well of the 384-well assay plates. The plates were placed on an orbital shaker for 2 min and then luminescence was quantified using the Envision (Perkin Elmer) plate reader.

For test [6], the target named is recombinant GSK3β kinase (Homo sapiens (Human), UniProt P49841). Kind of test: GSK3β kinase assay (Ser/Thr 09 peptide Z-lyte FRET).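 Further: kinase activity read as coumarin to fluorescein emission ratio, 11-point threefold dilutions from 10 µM to 0.0003 µM in duplicate, unphosphorylated and phosphorylated peptide as 0% and 100% controls.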 Format: biochemical. The settings on record: 46 μM ATP, 1 h room temperature.
The test system of test [7] is Tau phosphorylation at Ser396 (pSer396). Kind of test: Tau phosphorylation assay (pSer396 ELISA / western blot) in SH-SY5Y cells.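 Further: EC50 for reduction of Tau pSer396 in lysed cells, measured by colorimetric ELISA or chemiluminescent western blot, both using the same pSer396 antibody.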 The test is classed as cell-based, human. The settings on record: Homo sapiens; SH-SY5Y cells, overnight (16-18 h) exposure; read-out: pSer396 Tau EC50.

Molecules are shown by their SMILES.

recombinant GSK3β kinase, sequence (P49841 whole entry): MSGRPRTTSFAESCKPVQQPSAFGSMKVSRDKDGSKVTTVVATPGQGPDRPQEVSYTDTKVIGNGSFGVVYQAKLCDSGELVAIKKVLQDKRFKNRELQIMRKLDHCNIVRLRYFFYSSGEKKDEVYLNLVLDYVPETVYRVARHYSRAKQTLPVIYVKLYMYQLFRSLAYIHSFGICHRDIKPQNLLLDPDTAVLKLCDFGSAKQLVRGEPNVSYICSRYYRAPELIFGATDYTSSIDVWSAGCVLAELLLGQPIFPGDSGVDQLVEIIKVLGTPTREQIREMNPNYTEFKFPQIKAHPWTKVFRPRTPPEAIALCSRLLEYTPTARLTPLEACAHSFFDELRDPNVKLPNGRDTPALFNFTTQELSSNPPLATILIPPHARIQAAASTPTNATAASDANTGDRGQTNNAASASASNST

Take `Cn1cc(-c2ccc3cnc(NC(=O)CN4CCN(CCF)CC4)cc3c2)cn1` [Compound 354, 2-(4-(2-Fluoroethyl)piperazin-1-yl)-N-(6-(1-methyl-1H-pyrazol-4-yl)isoquinolin-3-yl)acetamide]: the EC50 (usually the concentration giving half of the maximal effect) in test [1] was 4.99 µM; in test [2], 0.0044 µM; in test [3], 0.346 µM; in test [4], 7 µM; in test [5], 2.32 µM; in test [6], 0.037 µM. The concentration for a half-maximal effect (EC50) in test [7] is 1.2 µM.
For the compound `C[C@H]1CN(C)CCN1CC(=O)Nc1cc2cc(-c3cnn(C)c3)ccc2cn1` [Compound 355, (S)-2-(2,4-Dimethylpiperazin-1-yl)-N-(6-(1-methyl-1H-pyrazol-4-yl)isoquinolin-3-yl)acetamide], the concentration giving a half-maximal response (EC50) came to 8.63 µM in test [1]; 0.0064 µM in test [2]; 6.19 µM in test [3]; 9.13 µM in test [4]; 3.51 µM in test [5]; 0.228 µM in test [6]. Besides, the half-maximal effective concentration (EC50) in test [7] stood at 1.7 µM.
As for `Cn1cc(-c2ccc3cnc(NC(=O)C4CCN(CCO)CC4)cc3c2)cn1` [Compound 358, 1-(2-Hydroxyethyl)-N-(6-(1-methyl-1H-pyrazol-4-yl)isoquinolin-3-yl) piperidine-4-carboxamide], the half-maximal effective concentration (EC50) in test [1] was determined as 2.37 µM; in test [2], 0.0006 µM; in test [3], 0.145 µM; in test [4] it was 0.613 µM; in test [5] it was 0.413 µM; in test [6] it was 0.08 µM. In addition, the 50% effective concentration (EC50) in test [7] is 0.353 µM.
For `Cn1cc(-c2ccc3cnc(NC(=O)C4CCN(Cc5ccccn5)CC4)cc3c2)cn1` [Compound 359, N-(6-(1-Methyl-1H-pyrazol-4-yl)isoquinolin-3-yl)-1-(pyridin-2-ylmethyl) piperidine-4-carboxamide], the half-maximal effective concentration (EC50) stood at 0.261 µM in test [1]; 0.003 µM in test [2]; 0.127 µM in test [3]; 1.03 µM in test [4]; 0.669 µM in test [5]; 0.082 µM in test [6]. In addition, the EC50 in test [7] is 0.521 µM.
Turning to `Cn1cc(-c2ccc3cnc(NC(=O)C4CCN(Cc5ncco5)CC4)cc3c2)cn1` [Compound 360, N-(6-(1-Methyl-1H-pyrazol-4-yl)isoquinolin-3-yl)-1-(oxazol-2-ylmethyl) piperidine-4-carboxamide], the EC50 in test [1] stood at 0.57 µM; in test [2], 0.0019 µM; in test [3], 0.094 µM; in test [4], 1.17 µM; in test [5], 0.69 µM; in test [6], 0.047 µM. Also, the EC50 in test [7] worked out at 0.659 µM.
As to `CN1CCC[C@@H]1C(=O)Nc1cc2cc(-c3cnn(C)c3)ccc2cn1` [Compound 363, (R)-1-Methyl-N-(6-(1-methyl-1H-pyrazol-4-yl)isoquinolin-3-yl)pyrrolidine-2-carboxamide], the EC50 in test [1] was 3.06 µM; in test [2], 0.0503 µM; in test [3], 0.387 µM; in test [4], 1.22 µM; in test [5], 2.36 µM; in test [6], 0.035 µM. The EC50 in test [7] was determined as 0.406 µM.
In the case of `Cn1cc(-c2ccc3cnc(NC(=O)C4CC4)c(Cl)c3c2)cn1` [Compound 364, N-(4-Chloro-6-(1-methyl-1H-pyrazol-4-yl)isoquinolin-3-yl) cyclopropanecarboxamide], the EC50 was 5.6 µM in test [1]; 0.84 µM in test [2]; over 10 µM in test [3]; over 10 µM in test [4]; over 10 µM in test [5]; 3.12 µM in test [6]. Further, in test [7], the EC50 is over 10 µM. Further, the inhibition at 10 µM is 15% in test [3]; 5.8% in test [4]; 24.1% in test [5] (SW480, read-out: percent inhibition at 10 μM).
As for `Cn1cc(-c2ccc3cnc(NC(=O)[C@H]4CC[C@H](N)CC4)cc3c2)cn1` [Compound 365, trans-4-Amino-N-(6-(1-methyl-1H-pyrazol-4-yl)isoquinolin-3-yl) cyclohexane-1-carboxamide], the concentration for a half-maximal effect (EC50) in test [1] stood at 0.522 µM; in test [2], 0.0027 µM; in test [3], 4.8 µM; in test [4] it was 0.526 µM; in test [5] it was 0.381 µM; in test [6], 0.052 µM. Moreover, the EC50 in test [7] worked out at 1.2 µM.
Take `Cn1cc(-c2cc(F)c3cnc(NC(=O)C4CCNCC4)cc3c2)cn1` [Compound 366, N-(8-Fluoro-6-(1-methyl-1H-pyrazol-4-yl)isoquinolin-3-yl)piperidine-4-carboxamide]: the EC50 stood at 0.91 µM in test [1]; 0.0106 µM in test [2]; 0.173 µM in test [3]; 1.12 µM in test [4]; 0.334 µM in test [5]; 0.116 µM in test [6]. Besides, the 50% effective concentration (EC50) in test [7] is 1.1 µM.
Consider `CC(C)CN1CCC(C(=O)Nc2cc3cc(-c4cnn(C)c4)cc(F)c3cn2)CC1` [Compound 367, N-(8-Fluoro-6-(1-methyl-1H-pyrazol-4-yl)isoquinolin-3-yl)-1-isobutylpiperidine-4-carboxamide], for which the EC50 in test [1] was 8.24 µM; in test [2], 0.0111 µM; in test [3] it was 0.211 µM; in test [4] it was 1.15 µM; in test [5], 0.524 µM; in test [6], 0.056 µM. Besides, the EC50 in test [7] was 0.258 µM.
For `Cn1cc(-c2cc(F)c3cnc(NC(=O)C4CCN(CCF)CC4)cc3c2)cn1` [Compound 368, N-(8-Fluoro-6-(1-methyl-1H-pyrazol-4-yl)isoquinolin-3-yl)-1-(2-fluoroethyl) piperidine-4-carboxamide], the EC50 amounted to 0.651 µM in test [1]; 0.0079 µM in test [2]; 0.272 µM in test [3]; 1.19 µM in test [4]; 0.689 µM in test [5]; 0.051 µM in test [6]. The EC50 in test [7] amounted to 0.66 µM.
For the compound `Cn1cc(-c2cc3cc(NC(=O)C4CCNCC4)ncc3cc2F)cn1` [Compound 369, N-(7-Fluoro-6-(1-methyl-1H-pyrazol-4-yl)isoquinolin-3-yl)piperidine-4-carboxamide], the concentration giving a half-maximal response (EC50) in test [1] stood at 0.864 µM; in test [2], 0.0028 µM; in test [3], 0.295 µM; in test [4] it was 1.13 µM; in test [5], 0.743 µM; in test [6], 0.101 µM. For the same compound, the EC50 in test [7] was 0.97 µM.
Turning to `CC(C)CN1CCC(C(=O)Nc2cc3cc(-c4cnn(C)c4)c(F)cc3cn2)CC1` [Compound 370, N-(7-Fluoro-6-(1-methyl-1H-pyrazol-4-yl)isoquinolin-3-yl)-1-isobutylpiperidine-4-carboxamide], the EC50 in test [1] worked out at 1.25 µM; in test [2] it was 0.0031 µM; in test [3], 0.379 µM; in test [4], 3.71 µM; in test [5], 0.608 µM; in test [6] it was 0.089 µM. The EC50 in test [7] worked out at 0.256 µM.
As for `Cn1cc(-c2cc3cc(NC(=O)C4CCN(CCF)CC4)ncc3cc2F)cn1` [Compound 371, N-(7-Fluoro-6-(1-methyl-1H-pyrazol-4-yl)isoquinolin-3-yl)-1-(2-fluoroethyl) piperidine-4-carboxamide], the 50% effective concentration (EC50) in test [1] was 1.06 µM; in test [2], 0.0024 µM; in test [3], 0.394 µM; in test [4], 1.21 µM; in test [5] it was 0.643 µM; in test [6], 0.023 µM. Further, the 50% effective concentration (EC50) in test [7] was 0.581 µM.
In the case of `CN1CCN(CC(=O)Nc2cc3cc(-c4cnn(C)c4)c(F)cc3cn2)CC1` [Compound 372, N-(7-Fluoro-6-(1-methyl-1H-pyrazol-4-yl)isoquinolin-3-yl)-2-(4-methylpiperazin-1-yl)acetamide], the EC50 in test [1] is 8.82 µM; in test [2] it was 0.0106 µM; in test [3], 0.504 µM; in test [4] it was 3.66 µM; in test [5], 3.4 µM; in test [6] it was 0.079 µM. The EC50 in test [7] came out at 1.1 µM.
`Cc1ncc(-c2ccc3cnc(NC(=O)C4(F)CC4)cc3c2)n1C` [Compound 376, N-(6-(1,2-Dimethyl-1H-imidazol-5-yl)isoquinolin-3-yl)-1-fluorocyclopropane-1-carboxamide]: the half-maximal effective concentration (EC50) in test [1] was 4.2 µM; in test [2], 0.0055 µM; in test [3] it was over 10 µM; in test [4] it was over 10 µM; in test [5] it was 2.21 µM; in test [6], 0.71 µM. Also, in test [7], the EC50 turned out to be 7.9 µM. In addition, the inhibition at 10 µM in test [3] is 21%; in test [4], 11.8%.
As for `Cn1cc(-c2ccc3cnc(NC(=O)C4CC4)cc3c2)nn1` [Compound 433, N-(6-(1-Methyl-1H-1,2,3-triazol-4-yl)isoquinolin-3-yl) cyclopropanecarboxamide], the concentration for a half-maximal effect (EC50) was 0.615 µM in test [1]; 0.0019 µM in test [2]; 0.052 µM in test [3]; 0.411 µM in test [4]; 0.191 µM in test [5]; 0.001 µM in test [6]. Also, the 50% effective concentration (EC50) in test [7] was 0.032 µM.

Values taken from patent publication US10287267B2, “Isoquinolin-3-yl carboxamides and preparation and use thereof” (Samumed, LLC, priority 2016, dated 2019).
